41 molecules from ChEMBL document CHEMBL3507680, “University of Dundee, Gates Library screen for HepG2 cell viability” can be followed below.

The nature of this series: Human HepG2 cell viability assay in 384 well format. The series is classed as toxicity, cell-based. Details: dose 125 nL, time 70.5 hour; cytotoxicity at 70.5 h: concentration not given beside the values. As to conditions: HepG2 cells, read-out: Inhibition.

As to `Cc1cc(=O)n2nc(Oc3ccc(C#N)cc3Cl)sc2n1`, the cytotoxicity at 70.5 h was -28%.
On to `Cc1c(C(=O)NCCCS(C)(=O)=O)cccc1-c1ccccn1`, for which the cytotoxicity at 70.5 h stood at 7.88%.
Consider `Cc1cnn(CCCNC(=O)NCCC(=O)Nc2ccccc2)c1`, for which the cytotoxicity at 70.5 h is -11.8%.
Then `CCc1cc(N2CCC(NCc3ccc(C)o3)CC2)ncn1`, with 9.42%; and `CCN(Cc1nc(Cc2ccccc2)no1)C1CC1`, with -4.11%.
For the molecule `Cc1ccc2nc(CN3CCCCC3C(=O)N3CCOCC3)cn2c1` (stereo unspecified), the cytotoxicity at 70.5 h was determined as 7.36%.
Then `CC(C)c1nc(C2CCCN2CCOCC2CC2)no1` (stereo unspecified), with -15.5%; and `CC(C)c1nc(C2CCCN2CCc2ccccn2)no1` (stereo unspecified), with -15.3%.
Then `O=C(CNc1ccc(OC2CCOC2)cc1)NCc1cccs1` (stereo unspecified), with -18.3%; and `Cc1c(C(=O)NCCC(=O)N2CCCC2)cccc1-c1ccccn1`, with -17.7%.
Then `Cc1cc(CC(=O)NC2CCCN(c3ccccc3F)C2=O)n[nH]1` (stereo unspecified), with 2.16%; and `O=C(CCCn1ccnc1)NC1CCCN(c2ccccc2Cl)C1` (stereo unspecified), with -18%.
With `Cc1csc(N2CCN(CCCN3CCCC3=O)CC2)n1`, the cytotoxicity at 70.5 h was -0.2%.
In the case of `Cc1ccc(S(=O)(=O)NC(=O)c2cc(S(C)(=O)=O)ccc2C)s1`, the cytotoxicity at 70.5 h was -0.802%.
For the molecule `O=C(NCCCn1cccn1)c1csc2c1CCCC2`, the cytotoxicity at 70.5 h is -11.3%.
In the case of `CC(C)Oc1nnc(SCC(=O)NCC(=O)N2CCCC2)s1` it was -10.4%; in that of `Cc1cc(NCC2CCN(c3ccccc3)C2)n2ncnc2n1` (stereo unspecified), -1.33%.
Turning to `Cc1cc(C)c(CNC(=O)N(C)Cc2nnc3n2CCC3)c(=O)[nH]1`, the cytotoxicity at 70.5 h is -10.3%.
Then `Cc1csc(CNC(=O)N(C)Cc2nnc3n2CCC3)n1`, with -12.1%; and `Cc1cccc(-c2nc(C)nn2CN2CCC3(CC2)OCCO3)c1`, with 11.8%; and `Cc1cnn(C2CN(Cc3noc(-c4ccccc4)n3)C2)c1`, with -7.62%.
Then `Cc1cc(NC2CCN(c3ccccc3)C2)n2ncnc2n1` (stereo unspecified), with -5.01%.
As for `CCN(CC)S(=O)(=O)c1ccc(CNC(=O)c2cc(C)on2)cc1`, the cytotoxicity at 70.5 h is -2.55%.
Take `O=C(NCCN1CCOCC1)Nc1cc(F)ccc1-n1cccn1`: the cytotoxicity at 70.5 h was -0.85%.
In the case of `NC(=O)CN1CCC(Nc2ccnc3ccc(Cl)cc23)CC1` it was -1.05%.
Then `Cc1ccc(S(C)(=O)=O)cc1C(=O)NS(=O)(=O)c1ccc(Cl)cc1`, with -4.48%; and `Cc1nn(C)cc1C(=O)N1CCC(CSc2ccccc2)C1` (stereo unspecified), with -1.58%; and `Cc1cccc(-c2nc(C)nn2CN2CCN(c3ncccn3)CC2)c1`, with -5.76%.
On to `Cc1csc(N2CCCN(C(=O)CCN3CCCC3=O)CC2)n1`, for which the cytotoxicity at 70.5 h is -8.02%.
As for `CCc1ncnc(N(C)CC2CCCCO2)c1F` (stereo unspecified), the cytotoxicity at 70.5 h is 2.36%.
Then `Cc1ncsc1C(=O)NCCN1CCCCCC1=O`, with -12.3%; and `COCCN(C)c1cnn(C)c(=O)c1Br`, with -14.7%; and `CC(c1ncc(-c2ccccc2)o1)N1CCN(C(=O)N(C)C)CC1` (stereo unspecified), with -2.55%.
As to `CN(CCc1ccccn1)c1cnn(C)c(=O)c1Br`, the cytotoxicity at 70.5 h was -11.5%.
In the case of `Cc1cc(=O)n2nc(Oc3cccc(C(N)=O)c3)sc2n1` it was -25%.
In the case of `Cc1cc(=O)n2nc(Oc3ccc(F)c(F)c3)sc2n1` it was 40.7%; in that of `Cc1cc(=O)n2nc(Oc3cc(Cl)cc(Cl)c3)sc2n1`, -19.3%; in that of `Cc1ncsc1C(=O)NCCCN1CCCCCC1=O`, -7.13%.
In the case of `CC(C)Oc1ncccc1CNC(=O)NC(C)c1cccs1` (stereo unspecified) it was -21%; in that of `O=C(NCc1cc(Br)cs1)Nc1cn[nH]c1`, -23.7%; in that of `O=C(NCc1csc(Br)c1)Nc1cn[nH]c1`, 39.3%.
